No end group written: not given here.
What was measured:
[1] = tested on: neonatal rat CMs (heart cells); assay: Preliminary 3D cell encapsulation studies in hydrogels; type: cell-based, rat (Sprague-Dawley); conditions: encapsulated, 1 to 4 days of 3D culture
Protocol: The lyophilized form of the peptide-modified Az-chitosan was dissolved in sterile 0.9% saline at 12 mg/mL. CMs (2.5×10^6) were suspended in 15 μL of CM culture media with 30% serum for 15 minutes on ice. These cells were then suspended in 35 μL of the hydrogel and crosslinked in the transwell inserts of the 96 well plates. The cells were cultivated in the CM culture medium with 10% FBS for up to 4 days.

[2] = tested on: Lewis rats; assay: Subcutaneous implantation of cardiomyocyte/hydrogel constructs and histological assessment
Protocol: Cardiac constructs were made by encapsulation of neonatal Lewis rat cardiomyocytes in Az-chitosan-QHREDGS or Az-chitosan-RGDS. A total of 2×10^6 cardiomyocytes were resuspended in 15 μL of ice cold cardiomyocytes medium with 30% FBS for at least 10 min. These cells were then encapsulated in 100 μL of the hydrogel in transwell plates and constructs (2 mm thick and 6 mm in diameter) were produced. A total of 8 samples were made for each type of hydrogel, and 4 from each group were implanted, while the other 4 were retained as in vitro controls. Samples were cultured at 37° C. for 5 d before they were implanted in vivo.
Cardiac constructs described above were inserted subcutaneously into the abdomen of Lewis rats. Four samples were implanted for each type of hydrogel. […] Quantification of total SMA and Factor VIII was performed using ImageScope v10 (Aperio Technologies) and mean intensities were averaged for six fields for each sample and normalized to total area. […] Apoptosis was assessed using a TUNEL assay (Roche Applied Science) following the manufacturer's standard protocol.

[3] = tested on: Human ESC-derived cardiac cells (Hes2); assay: Total cell number of monolayer human ESC-derived cardiac cells; type: cell-based; conditions: 50 μM, 10 days, vs PBS control and DGQESHR
Protocol: (§1) Human ESC-derived cardiac cell culture, were derived from Day 20 EBs, consisting of greater than 50% cardiomyocytes obtained by directed differentiation of human ES (Hes2) cells as described by Yang et al. (Nature 453, 524-528 (2008)). EBs were dissociated using Collagenase I (Invitrogen) for 2 hrs and 0.05% Trypsin-EDTA (Invitrogen) for 5 min and plated at 40000 cells/cm^2 onto 0.2% gelatin-coated plates in Stempro 34 medium supplemented with VEGF (10 ng/ml) and DKK1 (150 ng/ml). Cells were cultured in the presence of 50 μM QHREDGS, 50 μM DGQESHR (Biomatik) or PBS until they formed a beating monolayer, around 10 days. Peptides were replenished during media changes every 3 days. 100 μM H2O2 (Sigma, dissolved in PBS) was added to culture media for 10 min, washed, and analyzed immediately for CFDA-Live/PI-Dead. Live cells were counted using the cell counter plug in for ImageJ. 0.5 μM or 2.5 μM taxol (Sigma, dissolved in DMSO) was added to culture media for 24 hrs, and the extent of apoptosis was analyzed immediately using the Apo-ONE Homogeneous Caspase Assay (Promega), or TUNEL assay (Roche) as described above. A PBS control was used for H2O2 and DMSO control was used for taxol.

[4] = tested on: human iPS cells BJ1D; assay: BrdU assay of iPS cell proliferation; type: cell-based; conditions: 50 μM, 5 passages, FIG. 16
Protocol: (§2) After 5 passages in treatment, human iPS cells were passaged as described above in the presence of 50 μM QHREDGS, 50 μM DGQESHR (Biomatik), or PBS (Lonza) onto MEF plates and grown for 3 days. Cultures were pulsed for 1 hr with 10 μM BrdU (Sigma) and immediately analyzed for immunohistochemistry (see below). Ki67 (Millipore, 1:300) co-staining was used to differentiate MEFs from human iPS cells. All samples were counterstained with DAPI (300 nM, Sigma).

[5] = tested on: human iPS cells 0901B; assay: BrdU assay of iPS cell proliferation; type: cell-based; conditions: 50 μM, 5 passages, FIG. 17
Protocol: as §2

[6] = tested on: Human ESC-derived cardiac cells (Hes2); assay: Caspase 3/7 assay of human ESC-derived cardiac cells; type: cell-based; conditions: 50 μM, FIG. 20
Protocol: as §1

[7] = tested on: Human ESC-derived cardiac cells (Hes2); assay: TUNEL assay with cTnT co-localization of human ESC-derived cardiac cells; type: cell-based; conditions: 50 μM, FIG. 21
Protocol: as §1

[8] = tested on: human iPS cells; assay: iPS cell colony number following passage; type: cell-based; conditions: vs PBS control, FIG. 11
Protocol: The human iPS cells (BJ1D and 0901B) were obtained from the Ontario iPSC Facility and used following the hiPS cell research guidelines of the University of Toronto as described by Hotta et al. Nat. Protoc. 4, 1828-1844 (2009)), unless specified otherwise. Cells were cultured on a feeder layer of MEF cells (Mount Sinai Hospital Toronto, inactivated with 10 μg/ml mitomycin C and seeded at 1.8×10^5 per 3.5 cm dish). For single cell cultures, hiPS cell colonies were dissociated in 0.25% Trypsin-EDTA (Invitrogen) for 5 min, followed by trituration with a pipette. To ensure a single-cell suspension, the dissociated cells were passed through a 40 μm cell strainer (BD Falcon) and seeded onto MEF plates at 10 cells/ml, 10 cm plates. Cells were allowed to grow for 7 days and the total number of colonies was counted. In the treated groups, QHREDGS (Biomatik) or DGQESHR (Biomatik) dissolved in PBS (Lonza), were added at the reported concentrations to culture media at the onset of the first treatment passage and replenished with each media change. Media was changed by 100% every day. Peptides and controls were included during dissociation and passaging. Cells were analyzed after 5 passages in continuous treatment with 50 μM QHREDGS, 50 μM DGQESHR, or PBS, unless specified otherwise.
To determine the optimal concentration of QHREDGS for iPSC expansion, a dose-response experiment was performed. Cells were treated with 5 μM, 50 μM, or 500 μM of QHREDGS peptide, or 500 μM scrambled peptide (DGQESHR) in PBS with a PBS treated control for five passages and stained for CFDA-Live/PI-Dead. Live cells were counted using the cell counter plug in for ImageJ.

[9] = 7 days after subcutaneous implantation

Row | Substance | heart cell survival and elongation in 3D hydrogel [1] | cardiomyocytes in implant (sarcomeric α-actinin, troponin I staining) [2, 9] | percentage of apoptotic cells (TUNEL) [2, 9] [%] | apoptotic cardiomyocytes (troponin I and TUNEL double staining) ([2]; 7 days after subcutaneous implantation, vs RGDS modified hydrogel) | biomaterial degradation and cell infiltration (H&E) ([2]; day 7 after subcutaneous implantation) | percentage of SMA+ myofibroblasts ([2]; vs Az-chitosan-RGDS hydrogel) | increase in number of cardiac cells/well [3] | rate of proliferation (BrdU incorporation, 1 hr pulse) [4] | rate of proliferation (BrdU incorporation, 1 hr pulse) [5] | reduction of basal apoptosis levels in cardiac cells (Caspase 3/7) [6] [fold] | reduction of basal apoptosis in cardiomyocytes (TUNEL/cTnT) [7] | increase in colony number ([8]; 50 μM) [%] | increase in colony number ([8]; 50 μM, on average) | increase in colony number ([8]; 500 μM) [%]
1 | Az-chitosan-QHREDGS: QHREDGS peptide covalently conjugated to Az-chitosan by EDC chemistry (also: covalently conjugated to Az-chitosan by EDC chemistry, site not given here) | heart cell elongation | larger areas of cardiomyocytes | ~1.5 | fewer apoptotic cardiomyocytes | less cell infiltration | significantly higher percentage of SMA+ myofibroblasts | – | – | – | – | – | – | – | –
2 | QHREDGS (angiopoietin 1 peptide) | – | – | – | – | – | – | greater than 2 fold | remained the same | remained the same | 2 | greater than 10 fold | 14.3 | greater than 10 colonies/well | 40

Reference: patent publication US9096643B2, “Cell-protective peptides and uses thereof” (priority 2010, dated 2015)
